From ChEMBL document CHEMBL6096701 (J Med Chem, 2025)
Activity calls are given as the source filed them. The rule behind the calls is not given here.

Tests used:
[1] = Upregulation of IL-10 level in human CD4+ T cell by flow cytometry analysis; type: functional, cell-based
[2] = biological target: Cyclin-dependent kinase 8/19 (Homo sapiens, UniProt P49336+Q9BWU1); assay: Binding affinity to CDK8/CDK19 complex in human CD4+ T cell assessed as upregulation of IL-10 level; type: cell-based
Mus musculus [3] = assay: Anti-inflammatory activity in LPS-induced male CD-1 mouse acute inflammatory model assessed as peak IL-10 level at 50 mg/kg, sc preincubated for 15 mins followed by LPS stimulation and measured after 2 hrs relative to control; type: functional; conditions: time 135 min, 2.25 h
Mus musculus [4] = assay: Anti-inflammatory activity in LPS-induced male CD-1 mouse acute inflammatory model assessed as peak IL-10 level at 10 mg/kg, sc preincubated for 15 mins followed by LPS stimulation and measured after 2 hrs relative to control; type: functional; conditions: time 135 min, 2.25 h
[5] = Upregulation of IL-10 level in mouse whole blood cell preincubated for 30 mins followed by LPS stimulation and measured after 23 hrs by MSD analysis; type: functional, cell-based
Mus musculus [6] = assay: Anti-inflammatory activity in LPS-induced male CD-1 mouse acute inflammatory model assessed as effect on IL-10 level at 50 mg/kg, sc preincubated for 15 mins followed by LPS stimulation and measured after 3.5 hrs; type: functional, organism-based; conditions: time 225.0 min
[7] = Upregulation of IL-10 level in human whole blood cell preincubated for 30 mins followed by LPS stimulation and measured after 23 hrs by MSD analysis; type: functional, cell-based
Mus musculus [8] = assay: Anti-inflammatory activity in LPS-induced male CD-1 mouse acute inflammatory model assessed as peak IL-10 level at 1 mg/kg, sc preincubated for 15 mins followed by LPS stimulation and measured after 2 hrs relative to control; type: functional; conditions: time 135 min, 2.25 h
[9] = Upregulation of TNF-alpha level in human CD4+ T cell by flow cytometry analysis; type: functional, cell-based
[10] = Metabolic stability in human hepatocytes assessed as intrinsic clearance by LC-MS/MS analysis; type: ADME, cell-based, Hepatocyte; conditions: read-out: CLH
[11] = biological target: Cyclin-dependent kinase 7 (Homo sapiens) (UniProt P50613); assay: Binding affinity to CDK7 (unknown origin)
Chain of Cyclin-dependent kinase 7 (Homo sapiens) (P50613 whole entry): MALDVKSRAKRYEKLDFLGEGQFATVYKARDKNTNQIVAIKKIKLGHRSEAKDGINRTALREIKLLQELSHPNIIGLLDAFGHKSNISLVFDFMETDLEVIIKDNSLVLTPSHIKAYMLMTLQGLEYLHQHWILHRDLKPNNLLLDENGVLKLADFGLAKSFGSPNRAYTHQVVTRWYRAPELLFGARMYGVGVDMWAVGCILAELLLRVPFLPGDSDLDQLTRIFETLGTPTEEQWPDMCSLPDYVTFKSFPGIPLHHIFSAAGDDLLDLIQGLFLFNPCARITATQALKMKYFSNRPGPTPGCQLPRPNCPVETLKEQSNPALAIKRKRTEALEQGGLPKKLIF

[12] = biological target: Serine/threonine-protein kinase SIK1 (Homo sapiens) (UniProt P57059); assay: Binding affinity to SIK1 (unknown origin) by FRET biochemical assay
Chain of Serine/threonine-protein kinase SIK1 (Homo sapiens) (P57059 whole entry): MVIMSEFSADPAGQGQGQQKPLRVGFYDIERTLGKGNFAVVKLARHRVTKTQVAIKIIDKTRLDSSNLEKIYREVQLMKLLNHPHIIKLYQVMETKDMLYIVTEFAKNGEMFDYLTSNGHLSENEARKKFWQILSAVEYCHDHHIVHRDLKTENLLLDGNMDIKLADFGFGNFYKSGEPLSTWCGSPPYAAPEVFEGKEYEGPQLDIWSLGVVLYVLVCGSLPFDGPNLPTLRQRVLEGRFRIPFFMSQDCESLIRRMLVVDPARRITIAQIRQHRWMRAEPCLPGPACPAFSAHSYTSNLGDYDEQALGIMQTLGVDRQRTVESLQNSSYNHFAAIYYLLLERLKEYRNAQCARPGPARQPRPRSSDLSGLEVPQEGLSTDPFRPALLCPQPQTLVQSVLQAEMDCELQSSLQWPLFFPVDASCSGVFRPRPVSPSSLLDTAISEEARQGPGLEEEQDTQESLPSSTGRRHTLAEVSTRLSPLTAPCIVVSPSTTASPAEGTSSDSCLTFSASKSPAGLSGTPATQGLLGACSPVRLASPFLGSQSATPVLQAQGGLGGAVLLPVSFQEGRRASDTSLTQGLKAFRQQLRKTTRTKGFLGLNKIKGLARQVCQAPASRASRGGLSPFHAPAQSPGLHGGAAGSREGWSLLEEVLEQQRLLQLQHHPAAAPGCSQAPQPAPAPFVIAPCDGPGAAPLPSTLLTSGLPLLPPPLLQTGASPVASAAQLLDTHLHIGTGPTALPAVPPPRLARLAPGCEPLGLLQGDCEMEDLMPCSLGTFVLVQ

[13] = biological target: Cyclin-dependent kinase 5 (Homo sapiens) (UniProt Q00535); assay: Binding affinity to CDK5 (unknown origin)
Chain of Cyclin-dependent kinase 5 (Homo sapiens) (Q00535 whole entry, looked up): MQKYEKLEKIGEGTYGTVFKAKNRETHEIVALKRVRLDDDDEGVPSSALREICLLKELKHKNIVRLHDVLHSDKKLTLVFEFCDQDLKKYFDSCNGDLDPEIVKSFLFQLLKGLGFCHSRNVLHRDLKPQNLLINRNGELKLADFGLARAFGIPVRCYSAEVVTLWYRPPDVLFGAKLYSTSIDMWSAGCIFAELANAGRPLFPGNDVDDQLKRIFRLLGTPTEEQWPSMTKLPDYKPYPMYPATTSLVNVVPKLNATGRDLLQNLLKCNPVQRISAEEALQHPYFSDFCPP

[14] = biological target: Glycogen synthase kinase-3 beta (Homo sapiens) (UniProt P49841); assay: Binding affinity to GSK3beta (unknown origin)
[15] = biological target: Serine/threonine-protein kinase SIK3 (Homo sapiens) (UniProt Q9Y2K2); assay: Binding affinity to SIK3 (unknown origin) by FRET biochemical assay
Chain of Serine/threonine-protein kinase SIK3 (Homo sapiens) (Q9Y2K2 whole entry, looked up): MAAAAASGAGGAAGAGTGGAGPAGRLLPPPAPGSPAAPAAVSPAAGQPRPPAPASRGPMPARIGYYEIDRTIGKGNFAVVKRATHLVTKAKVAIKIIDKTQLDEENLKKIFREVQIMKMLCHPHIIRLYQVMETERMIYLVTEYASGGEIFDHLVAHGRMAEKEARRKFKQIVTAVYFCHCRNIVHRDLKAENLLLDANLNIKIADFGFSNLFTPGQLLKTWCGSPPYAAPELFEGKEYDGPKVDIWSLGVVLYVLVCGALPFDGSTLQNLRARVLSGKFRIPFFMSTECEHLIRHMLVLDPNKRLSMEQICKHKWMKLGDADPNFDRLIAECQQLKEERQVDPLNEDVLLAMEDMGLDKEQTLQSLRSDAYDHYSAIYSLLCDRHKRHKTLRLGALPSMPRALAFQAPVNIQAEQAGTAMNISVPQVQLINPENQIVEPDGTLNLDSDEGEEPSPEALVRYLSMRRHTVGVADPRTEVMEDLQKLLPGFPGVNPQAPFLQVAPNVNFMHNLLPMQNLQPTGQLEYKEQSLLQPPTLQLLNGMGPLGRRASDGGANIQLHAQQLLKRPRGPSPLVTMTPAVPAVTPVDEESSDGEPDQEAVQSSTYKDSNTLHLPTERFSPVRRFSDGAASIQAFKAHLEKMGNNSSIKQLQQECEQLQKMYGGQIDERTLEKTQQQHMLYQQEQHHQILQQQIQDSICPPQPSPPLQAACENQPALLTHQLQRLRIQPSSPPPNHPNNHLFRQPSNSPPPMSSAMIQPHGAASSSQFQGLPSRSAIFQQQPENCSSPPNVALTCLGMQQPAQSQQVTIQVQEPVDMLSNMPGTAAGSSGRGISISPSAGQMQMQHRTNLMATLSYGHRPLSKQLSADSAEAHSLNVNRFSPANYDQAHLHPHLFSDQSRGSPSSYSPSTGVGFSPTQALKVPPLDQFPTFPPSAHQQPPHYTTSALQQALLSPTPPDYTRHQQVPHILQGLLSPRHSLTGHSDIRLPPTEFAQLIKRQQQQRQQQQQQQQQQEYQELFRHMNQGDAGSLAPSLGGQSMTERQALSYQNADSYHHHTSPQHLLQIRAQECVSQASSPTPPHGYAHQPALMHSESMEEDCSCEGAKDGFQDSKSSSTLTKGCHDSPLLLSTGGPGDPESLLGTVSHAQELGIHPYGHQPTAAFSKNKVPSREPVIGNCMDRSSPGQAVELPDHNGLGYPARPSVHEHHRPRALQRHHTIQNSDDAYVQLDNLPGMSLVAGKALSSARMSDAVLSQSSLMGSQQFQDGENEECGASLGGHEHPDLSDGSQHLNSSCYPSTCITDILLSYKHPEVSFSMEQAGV

[16] = biological target: Serine/threonine-protein kinase SIK2 (Homo sapiens) (UniProt Q9H0K1); assay: Binding affinity to SIK2 (unknown origin) by FRET biochemical assay
Chain of Serine/threonine-protein kinase SIK2 (Homo sapiens) (Q9H0K1 whole entry, looked up): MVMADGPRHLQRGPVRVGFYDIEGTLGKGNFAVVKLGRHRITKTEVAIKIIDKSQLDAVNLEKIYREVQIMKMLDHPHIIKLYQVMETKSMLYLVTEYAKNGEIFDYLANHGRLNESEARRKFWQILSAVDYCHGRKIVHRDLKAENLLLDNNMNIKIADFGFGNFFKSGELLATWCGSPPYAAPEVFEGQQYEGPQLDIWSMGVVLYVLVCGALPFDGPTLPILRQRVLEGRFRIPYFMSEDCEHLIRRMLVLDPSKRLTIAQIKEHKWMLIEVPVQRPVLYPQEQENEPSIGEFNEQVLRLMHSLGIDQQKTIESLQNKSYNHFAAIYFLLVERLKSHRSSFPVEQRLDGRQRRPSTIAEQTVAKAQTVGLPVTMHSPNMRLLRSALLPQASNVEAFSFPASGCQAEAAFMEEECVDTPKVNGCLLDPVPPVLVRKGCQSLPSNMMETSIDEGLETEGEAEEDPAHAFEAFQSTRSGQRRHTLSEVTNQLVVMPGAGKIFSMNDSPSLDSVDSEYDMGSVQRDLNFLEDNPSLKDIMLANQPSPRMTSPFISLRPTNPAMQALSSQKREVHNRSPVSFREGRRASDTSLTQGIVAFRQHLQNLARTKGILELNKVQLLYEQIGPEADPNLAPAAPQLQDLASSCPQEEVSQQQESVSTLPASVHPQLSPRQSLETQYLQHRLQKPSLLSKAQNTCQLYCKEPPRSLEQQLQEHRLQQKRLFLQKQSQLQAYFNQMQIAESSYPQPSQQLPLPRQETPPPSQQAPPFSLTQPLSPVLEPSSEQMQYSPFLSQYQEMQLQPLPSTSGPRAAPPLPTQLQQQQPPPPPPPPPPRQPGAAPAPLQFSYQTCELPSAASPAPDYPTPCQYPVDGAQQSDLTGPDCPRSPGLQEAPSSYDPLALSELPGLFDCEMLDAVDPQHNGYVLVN

[17] = biological target: Glycogen synthase kinase-3 alpha (Homo sapiens) (UniProt P49840); assay: Binding affinity to GSK3alpha (unknown origin)
Chain of Glycogen synthase kinase-3 alpha (Homo sapiens) (P49840 2-483 limits assumed): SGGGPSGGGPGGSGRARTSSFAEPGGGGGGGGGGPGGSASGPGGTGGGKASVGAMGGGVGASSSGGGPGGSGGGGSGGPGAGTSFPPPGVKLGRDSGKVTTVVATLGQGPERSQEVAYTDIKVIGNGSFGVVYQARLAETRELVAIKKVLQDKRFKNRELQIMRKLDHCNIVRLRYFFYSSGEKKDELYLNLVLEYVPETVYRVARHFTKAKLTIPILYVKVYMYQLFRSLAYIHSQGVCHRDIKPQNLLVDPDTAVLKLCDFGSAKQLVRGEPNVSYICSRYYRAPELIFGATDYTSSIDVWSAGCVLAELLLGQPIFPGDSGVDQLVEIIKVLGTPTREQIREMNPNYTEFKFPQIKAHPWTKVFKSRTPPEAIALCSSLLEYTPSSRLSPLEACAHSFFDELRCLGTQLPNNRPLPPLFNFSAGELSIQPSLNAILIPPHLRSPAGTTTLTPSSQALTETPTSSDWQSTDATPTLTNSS

[18] = biological target: Cyclin-dependent kinase 9 (Homo sapiens) (UniProt P50750); assay: Binding affinity to CDK9 (unknown origin)
Chain of Cyclin-dependent kinase 9 (Homo sapiens) (P50750 whole entry): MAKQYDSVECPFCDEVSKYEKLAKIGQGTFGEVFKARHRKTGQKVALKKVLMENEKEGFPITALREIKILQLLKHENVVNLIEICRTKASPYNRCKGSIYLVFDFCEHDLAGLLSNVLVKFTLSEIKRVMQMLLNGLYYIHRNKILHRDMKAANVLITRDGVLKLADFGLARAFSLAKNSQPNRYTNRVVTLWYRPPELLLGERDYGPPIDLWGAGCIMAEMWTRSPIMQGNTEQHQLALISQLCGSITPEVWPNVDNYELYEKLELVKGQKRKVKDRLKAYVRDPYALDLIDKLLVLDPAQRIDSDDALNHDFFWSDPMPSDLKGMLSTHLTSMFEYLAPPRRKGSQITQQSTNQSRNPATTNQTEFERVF

[19] = biological target: Cyclin-dependent kinase 2 (Homo sapiens) (UniProt P24941); assay: Binding affinity to CDK2 (unknown origin)
[20] = biological target: Cyclin-dependent kinase 10 (Homo sapiens) (UniProt Q15131); assay: Binding affinity to CDK10 (unknown origin)
[21] = biological target: Cyclin-dependent kinase 6 (Homo sapiens) (UniProt Q00534); assay: Binding affinity to CDK6 (unknown origin)
Chain of Cyclin-dependent kinase 6 (Homo sapiens) (Q00534 whole entry): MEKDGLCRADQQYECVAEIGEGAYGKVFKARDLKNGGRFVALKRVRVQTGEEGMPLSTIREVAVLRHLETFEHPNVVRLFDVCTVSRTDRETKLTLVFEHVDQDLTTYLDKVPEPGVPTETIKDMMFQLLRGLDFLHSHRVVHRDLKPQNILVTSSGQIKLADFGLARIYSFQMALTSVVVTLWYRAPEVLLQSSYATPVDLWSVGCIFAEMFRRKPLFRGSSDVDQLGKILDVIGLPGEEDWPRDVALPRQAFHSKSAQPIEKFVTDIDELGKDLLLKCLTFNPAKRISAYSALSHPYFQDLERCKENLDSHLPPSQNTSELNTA

`N#Cc1cc(C(=O)N2CCCC(c3ccnc(N4CCCCC4)n3)C2)c[nH]1` (racemic) showed an EC50 [1] of 2000 nM.
`N#Cc1cc(C(=O)N2CCC[C@H](c3ccnc(N4CCCC4)n3)C2)c[nH]1` gave an EC50 [2] of 275 nM and an EC50 [1] of 275 nM.
Work on `C[C@H]1CCCN1c1nccc([C@H]2CCCN(C(=O)c3c[nH]c(C#N)c3)C2)n1` yielded an EC50 [1] of 339 nM.
For `Cc1[nH]c(C#N)cc1C(=O)N1CCCC(c2ccnc(N3CCCC3)n2)C1` (racemic), the EC50 [1] was 355 nM.
`N#Cc1cc(C(=O)N2CCC[C@H](c3ccnc(N4CCC(F)(F)C4)n3)C2)c[nH]1` gave an EC50 [1] of 955 nM.
`C[C@@H]1CC[C@H](c2ccnc(N3CCCC3)n2)CN1C(=O)c1c[nH]c(C#N)c1` gave an EC50 [1] of 33 nM.
Compound `N#Cc1cc(C(=O)N2CCC[C@H](c3ccnc(N4CC[C@H](F)C4)n3)C2)c[nH]1` has an EC50 [1] of 955 nM.
With `N#Cc1ccc(C(=O)N2CCOC(c3ccnc(N4CCCC4)n3)C2)[nH]1` (racemic) the EC50 [1] was > 25000 nM.
In the case of `CCc1nccc(C2CCCN(C(=O)c3c[nH]c(C#N)c3)C2)n1` (racemic), the EC50 [1] is reported as > 25000 nM.
For `N#Cc1cc(C(=O)N2CCCC(c3cc(N4CCCC4)ncn3)C2)c[nH]1` (racemic), the EC50 [1] was > 25000 nM.
For `N#Cc1coc(C(=O)N2CCOC(c3ccnc(N4CCCC4)n3)C2)c1` (racemic), the EC50 [1] was > 25000 nM.
Work on `CO[C@@H]1C[C@H](c2ccnc(N3CC[C@@H](F)C3)n2)CN(C(=O)c2c[nH]c(C#N)c2)C1` yielded an Activity (Mus musculus [3]) of 500%, an Activity (Mus musculus [4]) of 176% and an EC50 [1] of 46 nM. The EC50 [5] was 63 nM, the Activity (Mus musculus [6]) was “Active” and the EC50 [7] was 50 nM. For the same compound, the Activity (Mus musculus [8]) was 150% and the EC50 [9] was > 25000 nM.
Compound `C[C@@H]1C[C@H](c2ccnc(N3CCCC3)n2)CN(C(=O)c2c[nH]c(C#N)c2)C1` has an EC50 [1] of 251 nM and a CLint scaled [10] of 90 mL/min/kg.
`C[C@@H]1CCN(C(=O)c2c[nH]c(C#N)c2)C[C@H]1c1ccnc(N2CCCC2)n1` gave an EC50 [1] of 437 nM.
For `CCN(CC)c1nccc(C2CCCN(C(=O)c3c[nH]c(C#N)c3)C2)n1` (racemic), the EC50 [1] was > 25000 nM.
With `N#Cc1c[nH]c(C(=O)N2CCOC(c3ccnc(N4CCCC4)n3)C2)c1` (racemic) the Activity [11] was “inactive”, the Activity [12] was “inactive” and the EC50 [1] was 275 nM. For the same compound, the Activity [13] was “inactive”, the Activity [14] was “inactive” and the Activity [15] was “inactive”. For the same compound, the Activity [16] was “inactive”, the Activity [17] was “inactive” and the Activity [18] was “inactive”. The Activity [19] was “inactive”, the Activity [20] was “inactive” and the Activity [21] was “inactive”.
For `N#Cc1cc(C(=O)N2CCCC(c3ccnc(-n4cccn4)n3)C2)c[nH]1` (racemic), the EC50 [1] was 9120 nM.
`Cc1[nH]c(C#N)cc1C(=O)N1CCOC(c2ccnc(N3CCCC3)n2)C1` (racemic) gave an EC50 [1] of 490 nM.
Work on `CO[C@@H]1C[C@H](c2ccnc(N3CCCC3)n2)CN(C(=O)c2c[nH]c(C#N)c2)C1` yielded an EC50 [1] of 102 nM.
For `Cn1cc(C(=O)N2CCOC(c3ccnc(N4CCCC4)n3)C2)cc1C#N` (racemic), the EC50 [1] was > 25000 nM.
For `N#Cc1cc(C(=O)N2CCOC(c3ccnc(N4CCCC4)n3)C2)co1` (racemic), the EC50 [1] was > 25000 nM.
In the case of `N#Cc1c[nH]c(C(=O)N2CCO[C@H](c3ccnc(N4CCCC4)n3)C2)c1`, the Activity [11] is reported as “inactive”, the Activity [12] is reported as “inactive” and the EC50 [1] is reported as 5890 nM. For the same compound, the Activity [13] was “inactive”, the Activity [14] was “inactive” and the Activity [15] was “inactive”. The Activity [16] was “inactive”, the Activity [17] was “inactive” and the Activity [18] was “inactive”. For the same compound, the Activity [19] was “inactive”, the Activity [20] was “inactive” and the Activity [21] was “inactive”.
In the case of `N#Cc1cc(C(=O)N2CCOC(c3ccnc(N4CCCC4)n3)C2)n[nH]1` (racemic), the EC50 [1] is reported as > 25000 nM.
In the case of `CC(C)COc1nccc(C2CCCN(C(=O)c3c[nH]c(C#N)c3)C2)n1` (racemic), the EC50 [1] is reported as > 25000 nM.
In the case of `N#Cc1cc(C(=O)N2CCCC(c3ncnc(N4CCCC4)n3)C2)c[nH]1` (racemic), the EC50 [1] is reported as > 25000 nM.
For `Cc1cc(C2CCCN(C(=O)c3c[nH]c(C#N)c3)C2)nc(N2CCCC2)n1` (racemic), the EC50 [1] was > 25000 nM.
Work on `N#Cc1cc(C(=O)N2CCO[C@H](c3ccnc(N4CCCC4)n3)C2)c[nH]1` yielded an EC50 [1] of 1050 nM.
With `N#Cc1cc(C(=O)N2CCC[C@@H](c3ccnc(N4CCCC4)n3)C2)c[nH]1` the EC50 [2] was 6300 nM and the EC50 [1] was 275 nM.
In the case of `N#Cc1cc(C(=O)N2C[C@@H](c3ccnc(N4CCCC4)n3)CC(F)(F)C2)c[nH]1`, the EC50 [1] is reported as 263 nM.
With `N#Cc1ncc(C(=O)N2CCOC(c3ccnc(N4CCCC4)n3)C2)s1` (racemic) the EC50 [1] was > 25000 nM.
For `NC(=O)c1c[nH]c(C(=O)N2CCOC(c3ccnc(N4CCCC4)n3)C2)c1` (racemic), the EC50 [1] was > 25000 nM.
In the case of `N#Cc1cc(C(=O)N2CCC[C@H](c3ccnc(N4CC[C@@H](F)C4)n3)C2)c[nH]1`, the EC50 [1] is reported as 178 nM.
In the case of `CO[C@H]1C[C@@H](c2ccnc(N3CC[C@@H](F)C3)n2)CN(C(=O)c2c[nH]c(C#N)c2)C1`, the EC50 [1] is reported as 2400 nM.
`N#Cc1cc(C(=O)N2CCCC(F)(c3ccnc(N4CCCC4)n3)C2)c[nH]1` (racemic) showed an EC50 [1] of 676 nM.
